Assay results taken from patent US8815919B2, “Oxadiazole derivatives” (Merck Serono SA, priority 2009, dated 2014).
Structures can show the parent of a compound that is named as a salt. Where two headings read alike, the source gives them in different places.

Experiments:
S1P3 = S1P3 (Homo sapiens, UniProt Q99500); experiment: Receptor binding assay, [33P]sphingosine 1-phosphate competition, S1P3 membranes, WGA SPA beads
Procedure: (§1) Membranes were prepared from CHO cells expressing S1P1 or S1P3 for use in ligand and […] binding studies. Cells were suspended in 50 mM TRIS, pH 7.4, 2 mM EDTA, 250 mM Sucrose (buffer A) and 1× Complete protease inhibitor cocktail (Roche), and disrupted at 4° C. by N2 decompression using a cell disruption bomb (Parr Instrument). Following centrifugation at 1000 RPM for 10 min at 4° C., the supernatant was diluted (2×) in buffer A and centrifuged again at 19000 RPM for 75 min at 4° C. The pellet was then suspended in 10 mM HEPES, pH 7.4, 1 mM EDTA, 250 mM Sucrose (Buffer B), and 1× Complete EDTA-free protease inhibitor cocktail and homogenized using a potter. Membranes were flash frozen in liquid N2 and stored at −80° C.
(§2) Receptor binding assay: [33P]sphingosine 1-phosphate (3000 Ci/mmol; American Radiolabeled Chemicals, Inc.) was added to test compounds in 20% DMSO by competition. Membranes and WGA SPA beads (GE Healthcare) were added to give a final volume of 100 μl in 96-well plates or 50 μl in 384-well plates with assay concentrations of […] [33P]sphingosine 1-phosphate (respectively for S1P1 or S1P3), 50 mM HEPES, pH 7.5, 5 mM MgCl2, 100 mM NaCl, 0.4% fatty acid-free BSA, 1-5 μg/well of proteins in 96-well plates vs 0.6-1 μg/well of proteins in 384-well plates and 100 μg/well of WGA SPA beads in 96-well plates vs 75 μg/well of WGA SPA beads in 384-well plates. Binding was performed for 60 min at RT on a shaker and bound radioactivity was measured on a PerkinElmer 1450 MicroBeta counter. Triplicate samples were averaged and normalized as percentage of inhibition relative to total binding (only DMSO in well) and nonspecific binding (1000-fold excess of unlabeled S1P). Binding data were analyzed using the GraphPad Prism program or Genedata software.

S1P1 [1] = target: T1, S1P1 (Homo sapiens, UniProt P21453); experiment: S1P1 internalization assay in S1P1-U2OS cells (S1P1-EGFP), cell imaging; format: cell-based; design: host or cells: U2OS (human bone osteosarcoma epithelial cells), CMV promoter, geneticin selection; conditions: 1 hour incubation
Procedure: Cellular functional assays: Internalization of Sphingosine-1-phosphate receptor 1 (S1P1) in a human Cell line (U2OS) in a 384-well format using a Cell Imaging analysis. • Jo, E.; Sanna, M. G.; Gonzalez-Cabrera, P. J.; Thangada, S.; Tigyi, S.; Osborne, D. A.; Hla, T.; Parrill, A. L.; Rosen, H. Chem. Biol. 2005, 12, 703
The S1P1 internalization assay was performed in 384 well plates (Corning® 384 black with clear bottom 3712) using S1P1-U2OS cells from Biolmage (C039A), a human epithelial cell line (Human Bone Osteosarcoma Epithelial Cells). These cells expressed the human S1P1 Receptor fused to the green fluorescent protein (EGFP). A standard CMV promoter (cytomegalovirus promoter) controls the expression of S1P1-EGFP and continuous expression was maintained by addition of geneticin to the culture medium.
S1P1 Receptor desensitization induced the internalization of the membrane-localized S1P1-EGFP fusion protein to endosomes, which can be monitored by cell imaging analysis. The cells are plated in low serum medium (Dulbecco's Modified Eagle Medium (DMEM) with Glutamax-1 and high glucose, 1% Penicillin/Streptomycin, 1% Fetal Calf Serum (FCS), 0.5 mg/ml Geneticin) overnight.
The next day, S1P1-U2OS cells are incubated in 20 μl serum free medium (DMEM with Glutamax-1 and high glucose, 0.1% of fatty-acid free Bovin Serum Albumin (BSA), 10 mM, N′-2-Hydroxyethylpiperazine-N′-2 ethanesulphonic acid (HEPES) 1M) for 2 hours at 37° C./5% CO2. The cells are then treated with 4 μl compounds/agonists (6×/3% DMSO) for a total volume of 24 μl, and plates are incubated for 1 hour at 37° C./5% CO2.
S1P1-U2OS cells are fixed with 25 μl Paraformaldehyde 8% and stained with Hoechst 33345 dye (1:1000) for 20 minutes.
They were then washed 3 times with Phosphate Buffered Saline (PBS) and plates are sealed. The internalization of the receptor S1P1-EGFP is measured on Cellomics by calculating the “spot count per object” (“object” corresponds to nuclear and “spot” corresponds to S1P1-EGFP receptor). Internalization data were observed thanks to vHCS View and analyzed using Genedata® software.
Target sequence in this assay (P21453 whole entry): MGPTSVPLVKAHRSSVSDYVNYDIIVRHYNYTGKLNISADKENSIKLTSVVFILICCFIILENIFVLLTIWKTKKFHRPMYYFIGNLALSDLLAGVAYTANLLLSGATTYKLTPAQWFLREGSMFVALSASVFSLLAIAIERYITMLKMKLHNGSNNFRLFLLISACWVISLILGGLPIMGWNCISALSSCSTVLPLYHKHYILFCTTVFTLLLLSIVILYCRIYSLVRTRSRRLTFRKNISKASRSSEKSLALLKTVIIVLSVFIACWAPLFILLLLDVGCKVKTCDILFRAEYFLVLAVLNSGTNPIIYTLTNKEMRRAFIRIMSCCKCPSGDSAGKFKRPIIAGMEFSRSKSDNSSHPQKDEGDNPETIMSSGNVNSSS

S1P1 [2] = target: T1, S1P1; experiment: Receptor binding assay, [33P]sphingosine 1-phosphate competition, S1P1 membranes, WGA SPA beads
Procedure: as §1, §2
Target sequence in this assay (P21453 whole entry, species assumed): as the sequence (P21453 whole entry) above

[3] = 384 well-plate, read-out: S1P3 binding Ki (M) (384 well-plate)
[4] = 96 well-plate, read-out: S1P1 binding Ki (M) (96 well-plate)
[5] = 384 well-plate, read-out: S1P1 binding Ki (M) (384 well-plate)
[6] = 96 well-plate, read-out: S1P3 binding Ki (M) (96 well-plate)

S1P3, sequence (Q99500 whole entry, species assumed): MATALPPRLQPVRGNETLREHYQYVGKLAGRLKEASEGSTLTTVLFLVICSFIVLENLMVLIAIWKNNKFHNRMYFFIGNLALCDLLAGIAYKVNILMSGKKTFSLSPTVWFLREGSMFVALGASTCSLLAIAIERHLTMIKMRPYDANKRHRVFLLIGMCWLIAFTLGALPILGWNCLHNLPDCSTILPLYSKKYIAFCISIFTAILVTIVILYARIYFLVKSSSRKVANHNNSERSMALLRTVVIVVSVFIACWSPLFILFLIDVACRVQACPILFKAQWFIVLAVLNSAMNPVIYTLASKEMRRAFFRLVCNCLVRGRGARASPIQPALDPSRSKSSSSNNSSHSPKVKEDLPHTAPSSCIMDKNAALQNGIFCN

SMILES	Ki (S1P3; [3]) [M]	EC50 (S1P1 [1]) [nM]	Ki (S1P1 [2]; [4]) [M]	Ki (S1P1 [2]; [5]) [M]	Ki (S1P3; [6]) [M]
COCc1cc(-c2nc(-c3cccc(CN(CCO)CCC(=O)O)c3)no2)ccc1-c1ccccc1C [Example 66, N-(2-hydroxyethyl)-N-(3-{5-[2-(methoxymethyl)-2′-methylbiphenyl-4-yl]-1,2,4-oxadiazol-3-yl}benzyl)-beta-alanine, hydrochloride salt]	1.4e-06	44.9	5.36e-10	2.42e-09	–
COCc1cc(-c2nc(-c3ccc(CN(C)CC(=O)O)c(C)c3)no2)ccc1-c1ccccc1C [Example 125, 2-((4-(5-(2-(methoxymethyl)-2′-methylbiphenyl-4-yl)-1,2,4-oxadiazol-3-yl)-2-methylbenzyl)(methyl)amino)acetic acid]	1.92e-06	7.65	–	2.31e-09	–
COCc1cc(-c2nc(-c3cc(F)cc(CN(C)CC(=O)O)c3)no2)ccc1-c1ccccc1 [Example 76]	–	5.36	1.81e-10	–	1.09e-08
CCc1cc(-c2noc(-c3ccc(-c4ccccc4C)c(COC)c3)n2)ccc1CN(C)CC(=O)O [Example 124, 2-((2-ethyl-4-(5-(2-(methoxymethyl)-2′-methylbiphenyl-4-yl)-1,2,4-oxadiazol-3-yl)benzyl)(methyl)amino)acetic acid]	4.1e-06	23.2	–	1.98e-09	–
CCOc1cc(-c2nc(-c3ccc(CN(C)CC(=O)O)c(F)c3)no2)ccc1-c1ccccc1C [Example 92, N-{4-[5-(2-ethoxy-2′-methylbiphenyl-4-yl)-1,2,4-oxadiazol-3-yl]-2-fluorobenzyl}-N-methylglycine, hydrochloride salt]	–	7.91	1.72e-10	–	9.91e-08
COCc1cc(-c2nc(-c3ccc(CN(C)CC(=O)O)c(F)c3F)no2)ccc1-c1ccccc1C [Example 149, 2-((2,3-difluoro-4-(5-(2-(methoxymethyl)-2′-methylbiphenyl-4-yl)-1,2,4-oxadiazol-3-yl)benzyl)(methyl)amino)acetic acid, hydrochloride salt]	1.48e-07	9.54	–	1.26e-09	–
CC1CCCCN1c1ccc(-c2nc(-c3ccc(CN(C)CC(=O)O)c(F)c3)no2)cc1C(F)(F)F (centres unmarked) [Example 85, N-(2-fluoro-4-{5-[4-(2-methylpiperidin-1-yl)-3-(trifluoromethyl)phenyl]-1,2,4-oxadiazol-3-yl}benzyl)-N-methylglycine, dihydrochloride salt]	–	13.6	3.16e-10	9.74e-10	1.77e-07
COCc1cc(-c2nc(-c3cccc(CN(CCO)CCO)c3)no2)ccc1-c1ccccc1C [Example 40, 2,2′-[(3-{5-[2-(methoxymethyl)-2′-methylbiphenyl-4-yl]-1,2,4-oxadiazol-3-yl}benzyl)imino]diethanol]	9.69e-07	18.2	4.52e-10	–	5.35e-07
CC1CCCCN1c1ccc(-c2nc(-c3cc(F)cc(CN(C)CC(=O)O)c3)no2)cc1C(F)(F)F (centres unmarked) [Example 56, N-(3-fluoro-5-{5-[4-(2-methylpiperidin-1-yl)-3-(trifluoromethyl)phenyl]-1,2,4-oxadiazol-3-yl}benzyl)-N-methylglycine, hydrochloride salt]	–	20.2	3.25e-10	–	3.79e-08
CCN(CCC(=O)O)Cc1cccc(-c2noc(-c3ccc(-c4ccccc4F)c(COC)c3)n2)c1 [Example 62, N-ethyl-N-(3-{5-[2′-fluoro-2-(methoxymethyl)biphenyl-4-yl]-1,2,4-oxadiazol-3-yl}benzyl)-beta-alanine, hydrochloride salt]	–	2.91	1.68e-10	–	1.72e-08
COC(C)c1cc(-c2nc(-c3ccc(CN(C)CC(=O)O)cc3)no2)ccc1-c1ccccc1C (centres unmarked) [Example 140, N-(4-{5-[2-(1-methoxyethyl)-2′-methylbiphenyl-4-yl]-1,2,4-oxadiazol-3-yl}benzyl)-N-methylglycine, hydrochloride salt]	3.89e-07	3.75	1.89e-10	9.81e-10	1.64e-07
